pIC50: −log10 of the molar value. Read-outs that look alike come from different tables or passages of the source.
What was measured:
[1] = test system: adult rat ventricular myocytes; experiment: Cardiomyocyte contractility assay (fractional shortening, IonOptix); assay type: cell-based; conditions: Ventricular myocyte, 5 min, 5 minutes of compound; for inhibition at 0.3 µM: 0.3 uM compound; for inhibition at 1 µM: 1.0 uM compound
Description: Contractility of adult rat ventricular myocytes is determined by edge detection with an IonOptix contractility system. Aliquots of myocytes in Tyrode buffer (137 mM NaCl, 3.7 mM KCL, 0.5 mM MgCl2, 1.5 mM CaCl2, 4 mM HEPES, 11 mM glucose) are placed in a perfusion chamber (Series 20 RC-27NE; Warner Instruments), allowed to adhere to the coverslip, and then perfused with 37° C. Tyrode buffer. Myocytes are filed stimulated at 1 Hz and 10V. Only myocytes with clear striations, quiescent prior to pacing, with a cell length of 120-180 microns, a basal fractional shortening equal to 3-8% of the cell length, and a contraction velocity greater than 100 microns per second are used for contractility experiments. To determine the response to compounds, myocytes are first perfused for 60 seconds with Tyrodes buffer followed by 5 minutes of compound and a 140 second washout with Tyrodes buffer. Data is continuously recorded using IonOptix software. Contractility data is analyzed using Ionwizard software (IonOptix). For each cell, 10-20 contractility transients were averaged and compared under basal (no compound) and compound-treated conditions. Compound activity is measured by effects on fractional shortening (FS), where fractional shortening is the ratio of the peak length of the cell at contraction divided by the basal cell length normalized to 100% for an untreated cell.

[2] = test system: cardiac contractility in rat; experiment: Acute pharmacodynamic effect in rat (echocardiographic fractional shortening); assay type: in vivo; conditions: male Sprague-Dawley rats, single dose 4 mg/kg by oral gavage, percent reduction of baseline
Description: Representative compounds were tested for their ability to modulate cardiac contractility in rat as a measure of in vivo target engagement. Fractional shortening, a measure of contractility, was determined by noting the change in the diameter of the left ventricle at the end of systole/contraction (LVESd) relative to diastole/relaxation (LVEDd) and expressing this change as the ratio FS=(LVEDd−LVESd)/LVEDd. Fed male Sprague-Dawley rats were lightly anesthetized with isofluorane and baseline fractional shortening was measured in the parasternal position using transthoracic echocardiography (TTE). Following this measurement, animals were recovered and received a single dose of compound (4 mg/kg) by oral gavage. At three hours post-dose, second and third echocardiograms were collected under light anesthesia to determine drug effects on contractility. Effects are represented in Table 5 as a percent reduction of baseline fractional shortening.

bovine cardiac myosin = molecular target: T1, bovine cardiac myosin (Bos taurus, UniProt Q9BE39); experiment: Myosin inhibition assay (PK/LDH-coupled ATPase, bovine cardiac myofibrils); assay type: biochemical; conditions: bovine cardiac myofibrils
T1 construct: The source of cardiac myosin was from bovine heart in the form of skinned myofibrils; from tissue; host or cells: bovine heart, skinned myofibrils
T1 sequence (Q9BE39 whole entry): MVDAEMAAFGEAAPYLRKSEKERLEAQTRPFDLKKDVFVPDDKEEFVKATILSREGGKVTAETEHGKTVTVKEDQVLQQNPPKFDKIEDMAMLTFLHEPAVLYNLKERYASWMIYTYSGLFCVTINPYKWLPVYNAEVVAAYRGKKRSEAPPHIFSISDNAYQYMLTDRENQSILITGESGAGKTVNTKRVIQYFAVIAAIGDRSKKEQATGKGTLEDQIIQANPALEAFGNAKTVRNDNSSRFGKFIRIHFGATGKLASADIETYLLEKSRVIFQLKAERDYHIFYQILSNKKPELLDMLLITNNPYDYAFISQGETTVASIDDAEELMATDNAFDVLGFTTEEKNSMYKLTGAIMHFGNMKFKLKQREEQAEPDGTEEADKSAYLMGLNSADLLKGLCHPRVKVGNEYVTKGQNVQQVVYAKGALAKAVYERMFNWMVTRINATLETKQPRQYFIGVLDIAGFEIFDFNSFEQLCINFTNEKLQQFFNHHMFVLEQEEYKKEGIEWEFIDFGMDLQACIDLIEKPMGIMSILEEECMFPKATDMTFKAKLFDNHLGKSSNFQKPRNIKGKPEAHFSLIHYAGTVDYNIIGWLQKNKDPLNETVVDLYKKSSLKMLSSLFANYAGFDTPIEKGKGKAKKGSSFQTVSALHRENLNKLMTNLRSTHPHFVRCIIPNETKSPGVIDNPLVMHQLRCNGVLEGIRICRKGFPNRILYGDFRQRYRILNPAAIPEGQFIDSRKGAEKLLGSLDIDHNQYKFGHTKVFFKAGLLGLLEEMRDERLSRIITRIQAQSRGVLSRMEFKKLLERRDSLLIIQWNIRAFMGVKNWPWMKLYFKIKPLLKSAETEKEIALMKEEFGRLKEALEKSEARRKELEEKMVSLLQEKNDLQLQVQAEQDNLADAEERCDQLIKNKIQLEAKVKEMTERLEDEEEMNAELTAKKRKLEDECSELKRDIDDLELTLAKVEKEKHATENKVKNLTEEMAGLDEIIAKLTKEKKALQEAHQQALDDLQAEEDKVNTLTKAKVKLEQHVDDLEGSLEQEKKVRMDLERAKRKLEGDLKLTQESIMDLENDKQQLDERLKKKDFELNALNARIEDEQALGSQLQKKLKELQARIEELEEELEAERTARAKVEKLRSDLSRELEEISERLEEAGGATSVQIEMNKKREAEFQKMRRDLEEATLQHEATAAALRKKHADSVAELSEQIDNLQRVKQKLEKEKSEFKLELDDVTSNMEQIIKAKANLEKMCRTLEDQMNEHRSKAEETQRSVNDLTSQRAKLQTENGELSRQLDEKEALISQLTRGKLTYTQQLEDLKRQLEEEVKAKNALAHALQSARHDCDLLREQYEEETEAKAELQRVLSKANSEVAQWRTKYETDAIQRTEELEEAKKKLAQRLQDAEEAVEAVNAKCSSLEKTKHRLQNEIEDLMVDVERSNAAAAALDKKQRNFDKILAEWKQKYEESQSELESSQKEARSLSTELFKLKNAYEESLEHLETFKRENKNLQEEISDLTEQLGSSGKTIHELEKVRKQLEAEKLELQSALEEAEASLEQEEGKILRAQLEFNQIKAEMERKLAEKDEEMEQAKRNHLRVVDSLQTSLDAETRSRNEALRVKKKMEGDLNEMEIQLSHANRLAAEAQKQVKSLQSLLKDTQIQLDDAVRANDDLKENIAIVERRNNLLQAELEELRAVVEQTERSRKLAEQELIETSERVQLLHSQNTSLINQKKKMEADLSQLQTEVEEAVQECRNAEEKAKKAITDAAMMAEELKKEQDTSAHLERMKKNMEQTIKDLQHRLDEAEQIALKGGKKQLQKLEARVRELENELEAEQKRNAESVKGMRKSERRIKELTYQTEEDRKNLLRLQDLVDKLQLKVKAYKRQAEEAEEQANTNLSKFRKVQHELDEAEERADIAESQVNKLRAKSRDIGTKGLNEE
T1 sequence (P85100 whole entry partner): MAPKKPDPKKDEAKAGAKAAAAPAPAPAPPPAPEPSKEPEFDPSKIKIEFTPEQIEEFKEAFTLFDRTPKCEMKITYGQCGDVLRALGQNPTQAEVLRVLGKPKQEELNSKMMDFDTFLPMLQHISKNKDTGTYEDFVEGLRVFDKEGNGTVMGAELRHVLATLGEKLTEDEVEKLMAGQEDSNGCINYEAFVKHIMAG
T1 sequence (Q3SZE5 whole entry partner): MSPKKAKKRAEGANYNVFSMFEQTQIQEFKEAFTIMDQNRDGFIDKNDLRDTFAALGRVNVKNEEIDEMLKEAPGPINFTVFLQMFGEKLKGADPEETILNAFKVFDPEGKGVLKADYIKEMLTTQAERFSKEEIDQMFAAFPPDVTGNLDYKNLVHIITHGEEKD
Description: Small molecule agents were assessed for their ability to inhibit the enzymatic activity of bovine cardiac myosin using a biochemical assay that couples the release of ADP (adenosine diphosphate) from cardiac myosin to an enzymatic coupling system consisting of pyruvate kinase and lactate dehydrogenase (PK/LDH) and monitoring the absorbance decrease of NADH (at 340 nm) as a function of time. PK converts ADP to ATP (adenosine triphosphate) by converting PEP (phosphoenolpyruvate) to pyruvate. Pyruvate is then converted to lactate by LDH by converting NADH (nicotinamide adenine dinucleotide) to NAD (oxidized nicotinamide adenine dinucleotide). The source of cardiac myosin was from bovine heart in the form of skinned myofibrils. Prior to testing small molecule agents, the bovine myofibrils were assessed for their calcium responsiveness and the calcium concentration that achieves either a 50% (pCa50) or 75% (pCa75) activation of the myofibril system was chosen as the final condition for assessing the inhibitory activity of the small molecule agents. All enzymatic activity was measured in a buffered solution containing 12 mM PIPES (piperazine-N,N′-bis(2-ethanesulfonic acid), 2 mM magnesium chloride at pH 6.8 (PM 12 buffer). Final assay conditions were 1 mg/mL of bovine cardiac myofibrils, 0.4 mM PK/LDH, 50 uM ATP, 0.1 mg/mL BSA (bovine serum albumin), 10 ppm antifoam, 1 mM DTT, 0.5 mM NADH, 1.5 mM PEP at the desired free calcium concentration required to achieve either 50% or 75% activation of the myofibrils.
A dilution series of compound was created in DMSO such that the final desired concentration of compound would be achieved in a volume of 100 μL with a fixed DMSO concentration of 2% (v/v). Typically 2 μL of the dilution series were added to 96 well plate to achieve an 8 or 12 point dose response. Following the addition of 50 μL of a solution containing bovine cardiac myofibrils, PK/LDH and a solution of calcium (that achieved the desired activation), the enzymatic reaction was started with the addition of 50 μL of a solution containing ATP, PEP and NADH. The reaction progress was followed in a Molecular Devices M5e plate reader at ambient temperature using clear half area plates. The plate reader was configured to read absorbance at 340 nm in kinetics mode for 15 minutes. Data were recorded as the slope of the absorbance response to time. The slopes of the absorbance response as a function of time were normalized to slopes on the plate containing DMSO. This normalized rate was then plotted as a function of small molecule concentration and the data was fitted to a four-parameter fit using GraphPad Prism. The midpoint of this plot is the 1050 and is the concentration at which fifty percent of the total response is inhibited.

[3] = calcium giving 75% activation (pCa75), read-out: Biochemical Activity (pCa75)
[4] = calcium giving 50% activation (pCa50), read-out: Biochemical Activity (pCa50)

In the case of CC(C)n1c(=O)cc(N[C@@H](C)c2ccccc2)[nH]c1=O [Compound 1, (S)-3-Isopropyl-6-((1-phenylethyl)amino) pyrimidine-2,4(1H,3H)-dione], the inhibition at 0.3 µM [1] was 33 to 66%, the inhibition at 1 µM [1] was over 66% and the “% Reduction in Fractional Shortening 3 h post-dose” value [2] was “+++ (+++ presents a relative change in fractional shortening greater than 30%)”.
CC(C)n1c(=O)[nH]c(N[C@@H](C)c2ccccc2)c(F)c1=O [Compound 2, (S)-5-Fluoro-3-isopropyl-6-((1-phenylethyl)amino)pyrimidine-2,4(1H,3H)-dione] was tested, and the pIC50 (bovine cardiac myosin; [3]) was 4.82 to 6.00, the inhibition at 0.3 µM [1] was 33 to 66% and the inhibition at 1 µM [1] was over 66%.
C[C@H](Nc1cc(=O)n(C2CCN(S(C)(=O)=O)CC2)c(=O)[nH]1)c1ccccc1 [Compound 12, (S)-3-(1-(methylsulfonyl)piperidin-4-yl)-6-(1-phenylethylamino)pyrimidine-2,4(1H,3H)-dione] showed a pIC50 (bovine cardiac myosin; [3]) of over 6.00 and an inhibition at 1 µM [1] of 33 to 66%.
Molecule CC(C)n1c(=O)cc(N[C@H](C)c2ccccc2)[nH]c1=O [Compound 19R] has an inhibition at 1 µM [1] of under 33%.
Work on CC(C)n1c(=O)cc(N[C@@H](C)c2cccc(F)c2)[nH]c1=O [Compound 27] yielded a pIC50 (bovine cardiac myosin; [4]) of over 6.00, a pIC50 (bovine cardiac myosin; [3]) of over 6.00 and an inhibition at 0.3 µM [1] of 33 to 66%.
For C[C@H](Nc1cc(=O)n(-c2ccccc2)c(=O)[nH]1)c1ccccc1 [Compound 45], the pIC50 (bovine cardiac myosin; [4]) was over 6.00, the pIC50 (bovine cardiac myosin; [3]) was over 6.00 and the “% Reduction in Fractional Shortening 3 h post-dose” value [2] was “+ (+ represents a relative change in fractional shortening less than 15%)”.
In the case of CCCn1c(=O)cc(N[C@@H](C)c2ccccc2)[nH]c1=O [Compound 48, (S)-6-((1-phenylethyl)amino)-3-propylpyrimidine-2,4(1H,3H)-dione], the pIC50 (bovine cardiac myosin; [4]) was 4.82 to 6.00, the pIC50 (bovine cardiac myosin; [3]) was 4.82 to 6.00 and the “% Reduction in Fractional Shortening 3 h post-dose” value [2] was “+++ (+++ presents a relative change in fractional shortening greater than 30%)”.
For C[C@H](Nc1cc(=O)n(-c2cc(F)cc(F)c2)c(=O)[nH]1)c1ccccc1 [Compound 49, (S)-3-(3,5-difluorophenyl)-6-((1-phenylethyl)amino)pyrimidine-2,4(1H,3H)-dione], the pIC50 (bovine cardiac myosin; [4]) was over 6.00, the pIC50 (bovine cardiac myosin; [3]) was over 6.00 and the “% Reduction in Fractional Shortening 3 h post-dose” value [2] was “+++ (+++ presents a relative change in fractional shortening greater than 30%)”.
For C[C@H](Nc1cc(=O)n(CC(F)(F)F)c(=O)[nH]1)c1ccc2c(c1)OCO2 [Compound 67, (S)-6-((1-(benzo[d][1,3]dioxol-5-yl)ethyl)amino)-3-(2,2,2-trifluoroethyl)pyrimidine-2,4(1H,3H)-dione], the pIC50 (bovine cardiac myosin; [4]) was over 6.00 and the inhibition at 1 µM [1] was over 66%.
With C[C@H](Nc1cc(=O)n(C2CCC2)c(=O)[nH]1)c1ccccc1 [Compound 69, (S)-3-cyclobutyl-6-((1-phenylethyl)amino)pyrimidine-2,4(1H,3H)-dione] the pIC50 (bovine cardiac myosin; [4]) was over 6.00, the pIC50 (bovine cardiac myosin; [3]) was 4.82 to 6.00 and the “% Reduction in Fractional Shortening 3 h post-dose” value [2] was “+ (+ represents a relative change in fractional shortening less than 15%)”.
In the case of CC(C)n1c(=O)cc(N[C@@H](C)c2ccccc2C(F)(F)F)[nH]c1=O [Compound 70, (S)-3-isopropyl-6-((1-(2-(trifluoromethyl)phenyl)ethyl)amino) pyrimidine-2,4(1H,3H)-dione], the pIC50 (bovine cardiac myosin; [3]) was 4.82 to 6.00 and the “% Reduction in Fractional Shortening 3 h post-dose” value [2] was “++ (++ represents a relative change in fractional shortening between 15-30%)”.
With C[C@H](Nc1cc(=O)n(C2(C)CC2)c(=O)[nH]1)c1ccccc1 [Compound 71, (S)-3-(1-methylcyclopropyl)-6-((1-phenylethyl)amino)pyrimidine-2,4(1H,3H)-dione] the pIC50 (bovine cardiac myosin; [4]) was over 6.00 and the “% Reduction in Fractional Shortening 3 h post-dose” value [2] was “+++ (+++ presents a relative change in fractional shortening greater than 30%)”.
Work on C[C@H](Nc1cc(=O)n(C2CCC2)c(=O)[nH]1)c1ccc(F)cc1 [Compound 132] yielded a pIC50 (bovine cardiac myosin; [4]) of over 6.00.
For CCn1c(=O)cc(N[C@@H](C)c2ccc(F)c(F)c2)[nH]c1=O [Compound 134], the pIC50 (bovine cardiac myosin; [4]) was over 6.00.
For CC[C@H](C)n1c(=O)cc(N[C@@H](C)c2ccc(F)cc2)[nH]c1=O [Compound 135], the pIC50 (bovine cardiac myosin; [4]) was over 6.00.
CCCn1c(=O)cc(N[C@@H](C)c2ccc(F)cc2)[nH]c1=O [Compound 136] gave a pIC50 (bovine cardiac myosin; [4]) of over 6.00.
Molecule C[C@H](Nc1cc(=O)n(-c2cccc(F)n2)c(=O)[nH]1)c1ccccc1 [Compound 137] has a pIC50 (bovine cardiac myosin; [4]) of over 6.00.

— patent publication USRE50050E1, “Pyrimidinedione compounds” (MyoKardia, Inc., priority 2013, dated 2024)
